Data taken from patent publication US6410791B1, “Nitric esters and nitrate salts of specific drugs” (priority 1998, dated 2002).
Counter-ions that a name gives are not always drawn.

How the values were obtained:
tracheal secretion = test: Mucolitic activity: phenol red in the tracheal secretion; type: in vivo; details: male mice, 264 micromoles/Kg i.p. ten minutes before phenol red 500 mg/Kg i.p.; % variation of absorbance versus control group = 100%
Protocol: Mucolitic activity in male mice was evaluated according to the Method of Engler and Zselenyi, J. Pharm. Methods 11, 151, 1984. By this method it is determined the quantity of phenol red in the tracheal secretion. The animals were previously administered i.p. at a dose of 500 mg/Kg with the dye dissolved in physiologic solution. 3 groups of mice (weight 18±2 g), of 10 animal each, were treated i.p. with the dye. One group was the control group. Each of the two treated groups received, ten minutes before the above injection, an i.p. injection of 264 micromoles/Kg of Ambroxol nitrate or Ambroxol hydrochloride, respectively. 30 minutes after the phenol red injection, the animals were sacrificed. The trachea was freed from the surrounding tissues, dissected and washed for 30 minutes in 3 ml of physiologic solution. 0.1 ml of 1 M sodium hydroxide were then added to the physiologic solution. The washings were centrifuged for 15 minutes at 3000 rpm. A spectrophotometric assay was performed on the supernatant in order to determine the concentration of phenol red in the physiologic solution. Mucolitic activity was determined as % variation of absorbance of the sample in the confront of that of the control group, assumed to be 100%.

histamine = test: Antihistaminic activity: experimental bronchoconstriction after i.v. histamine; type: in vivo; details: guinea pig, histamine 2 μg/Kg i.v., compound endovenously, percent values with respect to the control (vehicle = 100)
[1] = tested on: cough stroke caused by the aerosol (citric acid); test: Anti-tussive activity: cough strokes caused by citric acid aerosol; type: in vivo, Guinea pigs; details: guinea pig, citric acid 7.5% aerosol, 110 micromoles/Kg i.p., 30 minutes after injection, counted for 10 minutes; control group = 100%
Protocol: Guinea pigs (weight 430+20) were treated as described by Braga et Al. Arzneim. Forsch./Drug Res. 43, 550, 1993.
In this pharmacological experiment 5 groups of 8 animals each were formed. One group was not treated and was the control group.
Each animal was placed in a cylindrical glass container having one tubing through each of the two circular flat surfaces. Said tubing were, respectively, for the aerosol inlet and outlet. The outlet tubing is connected to a polygraphic system.
The aerosol was formed from a solution 7.5% by weight of citric acid in water.
The air variation inside the glass container was registered before and after a cough stroke caused by the aerosol. One hour later Dextromethorphan hydrochloride, Dextromethorphan nitrate, Dextrorphan hydrochloride and dextrorphan nitrate were i.p. administered in a physiologic solution at a dose of 110 micromoles/Kg. 30 minutes after the injection the animals were treated with the aerosol. It was then registered the number of cough strokes for a time of 10 minutes. In the following Table III are reported the average response obtained from each treated group, referred to that of the control group, made 100%.

[2] = tested on: bronchoconstrictive response induced by capsaicin; test: Experimental bronchoconstriction induced by capsaicin (tidal air variation, Konzett apparatus); type: in vivo; details: guinea pig, capsaicin 1 μg/Kg i.v., 0.3 nmoles/min i.v. infusion for 15 minutes; percent values with respect to the control (carrier = 100)
Protocol: (§1) Each groups consisted of eight animals. […] For a total 15 minutes, starting from 5 minutes before capsaicin injection to 10 minutes after) Salbutamol (0.3 nmoles/min), or the corresponding nitrate salt (0.3 nmoles/min) or only the carrier were administered by intravenous infusion were administered to each group.
The heart frequency was determined by an electrocardiographic device, according to the usual methods. The average value of the heart frequency following administration of the vehicle was of 188±7 beats per minute.

heart frequency = test: Heart frequency (tachycardia) by electrocardiographic device during the capsaicin bronchoconstriction test; type: in vivo; details: guinea pig, 0.3 nmoles/min i.v. infusion for 15 minutes; percent values with respect to the control (carrier = 100; vehicle 188±7 beats per minute)
Protocol: as §1
The heart frequency was determined by an electrocardiographic device, according to the usual methods.

Structure (SMILES): Nc1c(Br)cc(Br)cc1CN[C@H]1CC[C@H](O)CC1 [Ambroxol hydrochloride]
- Mucolitic activity (%) (tracheal secretion): 30%

Structure (SMILES): Nc1c(Br)cc(Br)cc1CNC1CCC(O)CC1 (stereo not drawn) [Ambroxol nitrate]
- Mucolitic activity (%) (tracheal secretion): 0%

Structure (SMILES): O=C(O)COCCN1CCN(C(c2ccccc2)c2ccc(Cl)cc2)CC1 (stereo not drawn) [Cetirizine hydrochloride]
- Broncocostriction (%) (histamine; hydrochloride): 40%

Structure (SMILES): O=C(O)COCCN1CCN(C(c2ccccc2)c2ccc(Cl)cc2)CC1 (stereo not drawn) [Cetirizine nitrate]
- Broncocostriction (%) (histamine): 0%

Structure (SMILES): COc1ccc2c(c1)[C@]13CCCC[C@@H]1[C@H](C2)N(C)CC3 [Dextromethorphan hydrochloride]
- cough strokes (%) [1]: 30%

Structure (SMILES): COc1ccc2c(c1)[C@@]13CCCC[C@H]1[C@@H](C2)N(C)CC3 [Dextromethorphan nitrate]
- cough strokes (%) [1]: 0%

Structure (SMILES): CN1CC[C@@]23CCCC[C@@H]2[C@@H]1Cc1ccc(O)cc13 [Dextrorphan hydrochloride]
- cough strokes (%) [1]: 40%

Structure (SMILES): CN1CC[C@]23CCCC[C@H]2[C@H]1Cc1ccc(O)cc13 [Dextrorphan nitrate]
- cough strokes (%) [1]: 0%

Structure (SMILES): CC(C)(C)NCC(O)c1ccc(O)c(CO)c1 (stereo not drawn) [Salbutamol.HNO3, Salbutamol nitrate]
- Bronchoconstriction (%) [2]: 0%
- Tachycardia (%) (heart frequency): 97%

Structure (SMILES): CC(C)(C)NCC(O)c1ccc(O)c(CO)c1 (stereo not drawn) [Salbutamol]
- Bronchoconstriction (%) [2]: 0%
- Tachycardia (%) (heart frequency): 116%
